Measurements published in patent US10405547B2, “Substituted cyclic amides as herbicides” (FMC Corporation, priority 2015, dated 2019).

Experiments:
Assay type in all cases: in vivo
corn (Zea mays) = experiment: Test A postemergence, corn; details: visual injury, 0 to 100 scale (0 no effect, 100 complete control), approximately 10 days
In short: (§1)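 Injury scores (0 no effect, 100 complete control) were assigned by visually comparing treated with untreated plants after about 10 days of greenhouse growth. Seeds for soil treatment were sown into a loam and sand blend, while plants for foliar treatment grew in pots of that same blend.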

[1] = system: blackgrass (Alopecurus myosuroides); experiment: Test A postemergence, blackgrass; details: visual injury, 0 to 100 scale (0 no effect, 100 complete control), approximately 10 days
In short: as §1

rice (Oryza sativa) = experiment: Test B flooded paddy test, rice; details: applied to paddy water, visual rating after 13 to 15 days, scale 0 (no effect) to 100 (complete control)
In short: (§2)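 Under a constant 3 cm flood, test compounds went directly into the paddy water. Following 13 to 15 days of greenhouse growth, treated species and controls were compared by eye.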

kochia (Kochia scoparia) [2] = experiment: Test A preemergence, kochia; details: 0 to 100 scale (0 no effect, 100 complete control)
In short: as §1

[3] = system: ryegrass, Italian (Lolium multiflorum); experiment: Test A preemergence, Italian ryegrass; details: 0 to 100 scale (0 no effect, 100 complete control)
In short: as §1

[4] = system: pigweed (Amaranthus retroflexus); experiment: Test A preemergence, pigweed; details: 0 to 100 scale (0 no effect, 100 complete control)
In short: as §1

[5] = system: ragweed (common ragweed, Ambrosia elatior); experiment: Test A preemergence, ragweed; details: 0 to 100 scale (0 no effect, 100 complete control)
In short: as §1

[6] = system: wheat (Triticum aestivum); experiment: Test A postemergence, wheat; details: visual injury, 0 to 100 scale (0 no effect, 100 complete control), approximately 10 days
In short: as §1

[7] = system: barnyardgrass (Echinochloa crus-galli); experiment: Test A preemergence, barnyardgrass; details: 0 to 100 scale (0 no effect, 100 complete control)
In short: as §1

[8] = system: ducksalad (Heteranthera limosa); experiment: Test B flooded paddy test, ducksalad; details: applied to paddy water, visual rating after 13 to 15 days, scale 0 (no effect) to 100 (complete control)
In short: as §2

[9] = system: pigweed (Amaranthus retroflexus); experiment: Test A postemergence, pigweed; details: visual injury, 0 to 100 scale (0 no effect, 100 complete control), approximately 10 days
In short: as §1

[10] = system: galium (catchweed bedstraw, Galium aparine); experiment: Test A postemergence, galium; details: visual injury, 0 to 100 scale (0 no effect, 100 complete control), approximately 10 days
In short: as §1

[11] = system: foxtail, giant (Setaria faberii); experiment: Test A preemergence, giant foxtail; details: 0 to 100 scale (0 no effect, 100 complete control)
In short: as §1

[12] = system: ryegrass, Italian (Lolium multiflorum); experiment: Test A postemergence, Italian ryegrass; details: visual injury, 0 to 100 scale (0 no effect, 100 complete control), approximately 10 days
In short: as §1

[13] = system: ragweed (common ragweed, Ambrosia elatior); experiment: Test A postemergence, ragweed; details: visual injury, 0 to 100 scale (0 no effect, 100 complete control), approximately 10 days
In short: as §1

[14] = system: barnyardgrass (Echinochloa crus-galli); experiment: Test A postemergence, barnyardgrass; details: visual injury, 0 to 100 scale (0 no effect, 100 complete control), approximately 10 days
In short: as §1

[15] = system: foxtail, giant (Setaria faberii); experiment: Test A postemergence, giant foxtail; details: visual injury, 0 to 100 scale (0 no effect, 100 complete control), approximately 10 days
In short: as §1

[16] = system: barnyardgrass (Echinochloa crus-galli); experiment: Test B flooded paddy test, barnyardgrass; details: applied to paddy water, visual rating after 13 to 15 days, scale 0 (no effect) to 100 (complete control)
In short: as §2

kochia (Kochia scoparia) [17] = experiment: Test A postemergence, kochia; details: visual injury, 0 to 100 scale (0 no effect, 100 complete control), approximately 10 days
In short: as §1

[18] = system: sedge, umbrella (small-flower umbrella sedge, Cyperus difformis); experiment: Test B flooded paddy test, umbrella sedge; details: applied to paddy water, visual rating after 13 to 15 days, scale 0 (no effect) to 100 (complete control)
In short: as §2

SMILES | Plant response rating, Corn (corn (Zea mays); 125 g ai/ha) | Plant response rating, Corn (corn (Zea mays); 500 g ai/ha) | Plant response rating, Blackgrass ([1]; 125 g ai/ha) | Plant response rating, Blackgrass ([1]; 500 g ai/ha) | Plant response rating, Kochia (kochia (Kochia scoparia) [2]; 125 g ai/ha) | Plant response rating, Kochia (kochia (Kochia scoparia) [2]; 500 g ai/ha) | Plant response rating, Ryegrass, Italian ([3]; 125 g ai/ha) | Plant response rating, Ryegrass, Italian ([3]; 500 g ai/ha) | Plant response rating, Pigweed ([4]; 125 g ai/ha) | Plant response rating, Pigweed ([4]; 500 g ai/ha) | Plant response rating, Ragweed ([5]; 125 g ai/ha) | Plant response rating, Ragweed ([5]; 500 g ai/ha) | Plant response rating, Wheat ([6]; 125 g ai/ha) | Plant response rating, Wheat ([6]; 500 g ai/ha) | Plant response rating, Barnyardgrass ([7]; 125 g ai/ha) | Plant response rating, Barnyardgrass ([7]; 500 g ai/ha) | Plant response rating, Pigweed ([9]; 125 g ai/ha) | Plant response rating, Pigweed ([9]; 500 g ai/ha) | Plant response rating, Galium ([10]; 125 g ai/ha) | Plant response rating, Galium ([10]; 500 g ai/ha) | further results
CC1(COc2cccc(C3CNC(=O)C3C(=O)Nc3ccccc3C(F)(F)F)c2)COC1 (stereo not drawn) [Compound 15] | 0 | 0 | 0 | 0 | 0 | 0 | 0 | 0 | 0 | 0 | 0 | 0 | 0 | 0 | 0 | 60 | 0 | 0 | 0 | 0 | Plant response rating, Rice (Flood) (rice (Oryza sativa); 250 g ai/ha): 0; Plant response rating, Ducksalad (Flood) ([8]; 250 g ai/ha): 50; Plant response rating, Foxtail, Giant ([11]; 125 g ai/ha): 10; Plant response rating, Foxtail, Giant ([11]; 500 g ai/ha): 40; Plant response rating, Ryegrass, Italian ([12]; 125 g ai/ha): 0; Plant response rating, Ryegrass, Italian ([12]; 500 g ai/ha): 0; Plant response rating, Ragweed ([13]; 125 g ai/ha): 0; Plant response rating, Ragweed ([13]; 500 g ai/ha): 30; Plant response rating, Barnyardgrass ([14]; 125 g ai/ha): 0; Plant response rating, Barnyardgrass ([14]; 500 g ai/ha): 0; Plant response rating, Foxtail, Giant ([15]; 125 g ai/ha): 10; Plant response rating, Foxtail, Giant ([15]; 500 g ai/ha): 20; Plant response rating, Barnyardgrass (Flood) ([16]; 250 g ai/ha): 0; Plant response rating, Kochia (kochia (Kochia scoparia) [17]; 125 g ai/ha): 0; Plant response rating, Kochia (kochia (Kochia scoparia) [17]; 500 g ai/ha): 0; Plant response rating, Sedge, Umbrella (Flood) ([18]; 250 g ai/ha): 0
CC1(COc2cccc(C3CNC(=O)C3C(=O)Nc3ccccc3Cl)c2)COC1 (stereo not drawn) [Compound 16] | 0 | 0 | 0 | 0 | 0 | 0 | 0 | 0 | 0 | 0 | 0 | 0 | 0 | 0 | 0 | 60 | 0 | 0 | 0 | 0 | Plant response rating, Rice (Flood) (rice (Oryza sativa); 250 g ai/ha): 0; Plant response rating, Ducksalad (Flood) ([8]; 250 g ai/ha): 30; Plant response rating, Foxtail, Giant ([11]; 125 g ai/ha): 10; Plant response rating, Foxtail, Giant ([11]; 500 g ai/ha): 70; Plant response rating, Ryegrass, Italian ([12]; 125 g ai/ha): 0; Plant response rating, Ryegrass, Italian ([12]; 500 g ai/ha): 0; Plant response rating, Ragweed ([13]; 125 g ai/ha): 0; Plant response rating, Ragweed ([13]; 500 g ai/ha): 0; Plant response rating, Barnyardgrass ([14]; 125 g ai/ha): 0; Plant response rating, Barnyardgrass ([14]; 500 g ai/ha): 50; Plant response rating, Foxtail, Giant ([15]; 125 g ai/ha): 0; Plant response rating, Foxtail, Giant ([15]; 500 g ai/ha): 20; Plant response rating, Barnyardgrass (Flood) ([16]; 250 g ai/ha): 0; Plant response rating, Kochia (kochia (Kochia scoparia) [17]; 125 g ai/ha): 0; Plant response rating, Kochia (kochia (Kochia scoparia) [17]; 500 g ai/ha): 0; Plant response rating, Sedge, Umbrella (Flood) ([18]; 250 g ai/ha): 30
O=C1NCC(c2cccc(Cn3ccc(C(F)(F)F)n3)c2)C1C(=O)Nc1ccc(F)c(F)c1F (stereo not drawn) [Compound 22] | 0 | 0 | 0 | 0 | 0 | 0 | 0 | 0 | 0 | 0 | 0 | 0 | 0 | 0 | 0 | 30 | 0 | 0 | 0 | 0 | Plant response rating, Rice (Flood) (rice (Oryza sativa); 500 g ai/ha): 0; Plant response rating, Ducksalad (Flood) ([8]; 500 g ai/ha): 0; Plant response rating, Foxtail, Giant ([11]; 125 g ai/ha): 40; Plant response rating, Foxtail, Giant ([11]; 500 g ai/ha): 80; Plant response rating, Ryegrass, Italian ([12]; 125 g ai/ha): 0; Plant response rating, Ryegrass, Italian ([12]; 500 g ai/ha): 0; Plant response rating, Ragweed ([13]; 125 g ai/ha): 0; Plant response rating, Ragweed ([13]; 500 g ai/ha): 0; Plant response rating, Barnyardgrass ([14]; 125 g ai/ha): 40; Plant response rating, Barnyardgrass ([14]; 500 g ai/ha): 60; Plant response rating, Foxtail, Giant ([15]; 125 g ai/ha): 20; Plant response rating, Foxtail, Giant ([15]; 500 g ai/ha): 60; Plant response rating, Barnyardgrass (Flood) ([16]; 500 g ai/ha): 30; Plant response rating, Kochia (kochia (Kochia scoparia) [17]; 125 g ai/ha): 0; Plant response rating, Kochia (kochia (Kochia scoparia) [17]; 500 g ai/ha): 0; Plant response rating, Sedge, Umbrella (Flood) ([18]; 500 g ai/ha): 0
O=C1NCC(c2cccc(Cn3ccc(C(F)(F)F)n3)c2)C1C(=O)Nc1ccccc1F (stereo not drawn) [Compound 23] | 0 | 0 | 0 | 0 | 0 | 20 | 0 | 0 | 0 | 0 | 0 | 0 | 0 | 0 | 0 | 20 | 0 | 0 | 0 | 0 | Plant response rating, Rice (Flood) (rice (Oryza sativa); 500 g ai/ha): 0; Plant response rating, Ducksalad (Flood) ([8]; 500 g ai/ha): 0; Plant response rating, Foxtail, Giant ([11]; 125 g ai/ha): 20; Plant response rating, Foxtail, Giant ([11]; 500 g ai/ha): 50; Plant response rating, Ryegrass, Italian ([12]; 125 g ai/ha): 0; Plant response rating, Ryegrass, Italian ([12]; 500 g ai/ha): 0; Plant response rating, Ragweed ([13]; 125 g ai/ha): 0; Plant response rating, Ragweed ([13]; 500 g ai/ha): 0; Plant response rating, Barnyardgrass ([14]; 125 g ai/ha): 0; Plant response rating, Barnyardgrass ([14]; 500 g ai/ha): 30; Plant response rating, Foxtail, Giant ([15]; 125 g ai/ha): 0; Plant response rating, Foxtail, Giant ([15]; 500 g ai/ha): 20; Plant response rating, Barnyardgrass (Flood) ([16]; 500 g ai/ha): 0; Plant response rating, Kochia (kochia (Kochia scoparia) [17]; 125 g ai/ha): 0; Plant response rating, Kochia (kochia (Kochia scoparia) [17]; 500 g ai/ha): 0; Plant response rating, Sedge, Umbrella (Flood) ([18]; 500 g ai/ha): 0
O=C1NCC(c2cccc(Cn3ccc(C(F)(F)F)n3)c2)C1C(=O)Nc1ccc(F)cc1F (stereo not drawn) [Compound 24] | 0 | 0 | 0 | 0 | 0 | 0 | 0 | 0 | 0 | 0 | 0 | 0 | 0 | 0 | 0 | 0 | 0 | 0 | 0 | 0 | Plant response rating, Rice (Flood) (rice (Oryza sativa); 500 g ai/ha): 0; Plant response rating, Ducksalad (Flood) ([8]; 500 g ai/ha): 0; Plant response rating, Foxtail, Giant ([11]; 125 g ai/ha): 0; Plant response rating, Foxtail, Giant ([11]; 500 g ai/ha): 0; Plant response rating, Ryegrass, Italian ([12]; 125 g ai/ha): 0; Plant response rating, Ryegrass, Italian ([12]; 500 g ai/ha): 0; Plant response rating, Ragweed ([13]; 125 g ai/ha): 0; Plant response rating, Ragweed ([13]; 500 g ai/ha): 0; Plant response rating, Barnyardgrass ([14]; 125 g ai/ha): 0; Plant response rating, Barnyardgrass ([14]; 500 g ai/ha): 0; Plant response rating, Foxtail, Giant ([15]; 125 g ai/ha): 0; Plant response rating, Foxtail, Giant ([15]; 500 g ai/ha): 0; Plant response rating, Barnyardgrass (Flood) ([16]; 500 g ai/ha): 0; Plant response rating, Kochia (kochia (Kochia scoparia) [17]; 125 g ai/ha): 0; Plant response rating, Kochia (kochia (Kochia scoparia) [17]; 500 g ai/ha): 0; Plant response rating, Sedge, Umbrella (Flood) ([18]; 500 g ai/ha): 0
